Data published in US7792665B2, “Method for designing a compound based on the three dimensional structure of phosphoinositide dependent protein kinase 1 (PDK1)” (Medical Research Council, priority 2002, dated 2010).
Where a chain is given by its changes, count along the chain named. Where a SMILES comes first, the peptide text is derived from it. [ ]: non-standard residue; d: D form. pT = C[C@@H](OP(=O)(O)O)[C@H](N)C(=O)O

What was measured:
PDK1[K76A] = molecular target: T1, PDK1[K76A] (Homo sapiens, UniProt O15530, K76A); test: Surface plasmon resonance (BiaCore) binding, PDK1[K76A]; settings: relative to wild type PDK1
T1 construct: made in house; host or cells: human embryonic kidney 293 cells (pEBG2T vector)
T1 sequence (O15530 1-556 K76A): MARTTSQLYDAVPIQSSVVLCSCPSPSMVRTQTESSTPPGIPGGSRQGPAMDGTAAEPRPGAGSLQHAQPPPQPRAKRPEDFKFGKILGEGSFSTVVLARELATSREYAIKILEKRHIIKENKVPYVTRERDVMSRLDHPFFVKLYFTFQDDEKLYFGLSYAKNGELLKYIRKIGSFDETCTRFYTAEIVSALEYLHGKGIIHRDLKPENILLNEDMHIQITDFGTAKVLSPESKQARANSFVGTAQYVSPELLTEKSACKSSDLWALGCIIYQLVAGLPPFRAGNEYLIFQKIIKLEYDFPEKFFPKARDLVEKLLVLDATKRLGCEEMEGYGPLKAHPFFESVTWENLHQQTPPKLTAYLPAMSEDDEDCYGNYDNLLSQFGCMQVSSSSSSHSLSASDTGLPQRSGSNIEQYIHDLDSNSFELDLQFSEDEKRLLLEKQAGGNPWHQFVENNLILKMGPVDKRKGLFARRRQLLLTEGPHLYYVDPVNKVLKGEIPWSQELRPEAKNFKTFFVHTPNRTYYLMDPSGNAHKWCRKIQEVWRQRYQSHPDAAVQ
Description: (§1) Binding and activation of wild type and mutant forms of PDK1 to a phosphopeptide derived from the hydrophobic motif of S6K1. The binding of the wild type (wt) PDK1 and indicated mutants to a phosphopeptide comprising the hydrophobic motif of S6K1 (S6K-pHM: […]*YVAPSV, where T* indicates phospho-threonine, SEQ ID NO:104) was analysed by surface plasmon resonance as described in the Materials and Methods.
(§2) A. The sensor chip SA was coated with 12RUs of the biotinylated S6K-pHM peptide and the binding was analysed following injection of 270 nM wild type PDK1, PDK1 [T148A] and PDK1 [K76A]. […] (data not shown).
(§3) B. As in A. except that binding was analysed over a range of PDK1 concentrations (2-2150 nM). The response level at the steady state binding is plotted versus the log of the PDK1 concentration. The estimated Kd was obtained by fitting the data to a sigmoid curve using Kaleidagraph software.
Binding was analysed in a BiaCore 3000 system (BiaCore AB, Stevenage, UK). Biotinylated S6K-pHM (Biotin-C12-[…](P)YVAPSV) (SEQ ID NO:104) or the non-phosphorylated form of this peptide S6K-HM was bound to an streptavidin-coated Sensor chip (SA) (12 response units, RU). […] Steady state binding was determined at each concentration. Dissociation of PDK1 from the phospho-peptide was monitored over a 1 min period. […]

wild type PDK1 = molecular target: T2, wild type PDK1 (Homo sapiens, UniProt O15530); test: Surface plasmon resonance (BiaCore) binding of hydrophobic motif peptides, wild type PDK1; parameters: made in house; host or cells: human embryonic kidney 293 cells (pEBG2T vector); settings: BiaCore
T2 sequence (O15530 1-556): T1 sequence (O15530 1-556 K76A) with A76K
Description: as §1, §2, §3
Binding was analysed in a BiaCore 3000 system (BiaCore AB, Stevenage, UK). Biotinylated S6K-pHM (Biotin-C12-[…](P)YVAPSV) (SEQ ID NO:104) or the non-phosphorylated form of this peptide S6K-HM was bound to an streptavidin-coated Sensor chip (SA) (12 response units, RU). 30 μl of wild type or the indicated mutant GST-PDK1 were injected at a flow rate of 30 μl/min, in buffer HBS-P (10 mM HEPES pH 7.4, 0.15M NaCl, 0.005% (by vol) polysorbate-20) supplemented with 1 mM DTT. Specific interactions between 56K-pHM and PDK1 proteins were obtained between the concentration range of 2-2150 nM PDK1. Steady state binding was determined at each concentration. Dissociation of PDK1 from the phospho-peptide was monitored over a 1 min period. Regeneration of the sensor chip surface was performed with 1{tilde over (0)} μl injections of 0.05% SDS. […] (RUmax=435). For all PDK1 construct tested, the off rates for S6Kp-HM were high in comparison to those of PIFtide binding with the time taken for 50% dissociation to occur for 56K-pHM is 30s compared to 1000s for PIFtide.

## CC(C)C[C@H](NC(=O)[C@H](Cc1ccccc1)NC(=O)[C@@H](NC(=O)[C@H](CCC(N)=O)NC(=O)[C@H](CC(N)=O)NC(=O)[C@H](C)NC(=O)[C@H](CO)NC(=O)[C@H](CCC(=O)O)NC(=O)[C@@H](N)CO)C(C)C)C(=O)NCC(=O)N[C@@H](Cc1ccccc1)C(=O)N[C@H](C(=O)N[C@@H](Cc1ccc(O)cc1)C(=O)N[C@H](C(=O)N[C@@H](C)C(=O)N1CCC[C@H]1C(=O)N[C@@H](CO)C(=O)N[C@H](C(=O)O)C(C)C)C(C)C)[C@@H](C)OP(=O)(O)O [S6K-pHM] (H-SESANQVFLGF[pT]YVAPSV-OH; N-terminus and C-terminus assumed)
PDK1[K76A]
  lower affinity of PDK1[K76A] than wild type PDK1: 3 fold
Wild type PDK1; all PDK1 constructs tested
  time taken for 50% dissociation of PDK1 from peptide: 30 s
Wild type PDK1; overall
  lower affinity of wild type PDK1 for peptide in comparison to PIFtide: approximately 100 fold
